Measured values reported in article PMC9653966, “Simultaneous Degradation Study of Isomers in Human Plasma by HPLC-MS/MS and Application of LEDA Algorithm for Their Characterization” (International Journal of Molecular Sciences, 2022).
Like-named read-outs stand apart in the source and are kept apart here.

Legend:
[1] = Chemical stability test in human plasma (enzymatic hydrolysis, HPLC-MS/MS); assay type: in vitro ADME; details: for LEDA195–221 k ± 2SD (degradation rate): LEDA195–221 matrix (Table S4); for behaviour towards plasma enzymes (hydrolysis or stable) / half-life at 1 µM: human plasma; for behaviour towards plasma enzymes (hydrolysis or stable): all sample sets (pure isomer and mixture), up to 120 min at 37 °C; for half-life at 1 µM: human
Protocol: The present investigation was carried out to evaluate the variation of hydrolytic activity of the human plasma enzymatic system when two potential substrates were simultaneously present. […] Therefore, the human plasma sample solutions, prepared with a mixture of isomers, presented both a substrate and a potential interference, which could influence the enzyme functionality. To correctly monitor this process, it must be possible to distinguish each isomer present in the sample, quantify it with the proper calibration curve and plot its degradation profile. The LEDA algorithm was used to support this investigation and to test its quali-quantitative ability in a complex matrix of human plasma samples. The experimental plan involved the analysis of three series of human plasma samples for each couple of isomers: two series of samples were added to a pure isomer, to check the activity of the plasma enzyme system without interferences, and the last series of samples were spiked with the equimolar mixture of isomers. The series of samples were prepared, as described in Section 4.6 and analyzed with the proper HPLC-MS/MS method. The acquired data were processed with the conventional quantitative method for the series containing the single isomers, and with the LEDA approach for the samples spiked with the mixture of isomers. The samples containing a single isomer were worked out by the integration of quantitative Pi signal and the estimation of PAR value by dividing with IS abundance, and quantitative determination of the analyte in the sample was obtained by using the proper calibration curve. In contrast, in the samples spiking with the mixture of isomers, each proposed LEDA matrix recognized the relative concentration of the isomers present in the sample. Therefore, their abundance in the precursor ion signal (or Ri signal) were assigned, each PAR value calculated by dividing with the IS abundance, and quantitative determination of the analytes in the sample were performed by using the respective precursor ion calibration curve. In Figure 6, an example of the degradation plots of the mixtures of the ELF94 and ELF96 isomers is shown, while all the degradation profiles are reported in the Supplementary Material (Figures S20–S25).
Each sample was prepared by adding 10 µL of proper spiked solution to 100 µL of human plasma matrix in a 1.5 mL microcentrifuge tube. The obtained solution corresponds to 1 μM of analyte that undergo degradation study. Each set of samples was prepared in triplicate and incubated for four different times: 0, 30, 60, and 120 min at 37 °C. Therefore, each stability panel of studied analyte was represented by a batch of 12 samples (4 incubation times, 3 replicates). After the incubation, 300 µL of IS solution was added to the sample and then centrifuged (room temperature for 5 min at 800× g). Then, the supernatant was transferred to autosampler vials, dried under a gentle stream of nitrogen and dissolved in 1.0 mL of 10 mM of formic acid in mQ water:acetonitrile 80:20 solution [23, 24, 25, 27, 28, 29, 30]. Each sample batch included the blank samples of human plasma matrix, prepared as described above, with the addition only of the IS solution. Thus, the analysis of the blank samples can check any interference in the analyte MRM signals due to the matrix components. Three sets of six replicates for each analyte were prepared to evaluate the matrix effect (ME) and the analyte recovery (RE) of the proposed method. The same evaluation was extended to the IS to verify its reliability as a quantitative reference. Set A was prepared by mixing 10 µL of spiked solution with 300 µL of IS solution. Set B was obtained by mixing 100 µL of plasma with 300 µL of acetonitrile and, after centrifugation and separation of the supernatant, by adding 10 µL of spiked solution to each analyte or 300 µL of IS solution. […]

[2] = set-up: method as in PMID 27882889, PMID 29536775, PMID 35753165, PMID 30947123; details: check of hydrolytic activity of the plasma pool; own degradation plot comparable to literature value; cited from earlier work
[3] = human plasma spiked with equimolar mixture of the isomer pair, 1 μM each, 37 °C, LEDA195–221 matrix
[4] = human plasma spiked with isomers mixture
[5] = human plasma spiked with isomers mixture, LEDAall matrix (Table S4)
[6] = human plasma spiked with the pure isomer, 1 μM, 37 °C, 0-120 min, conventional quantitative processing
[7] = human plasma spiked with equimolar mixture of the isomer pair, 1 μM each, 37 °C, LEDA195–221 matrix, read-out: Mix t1/2 ± 2SD
[8] = human plasma spiked with isomers mixture, LEDAall matrix (Table S4), read-out: LEDAall t1/2 ± 2SD
[9] = human plasma spiked with the pure isomer, 1 μM, 37 °C, 0-120 min, conventional quantitative processing, read-out: Pure Isomer t1/2 ± 2SD

| Mix k ± 2SD (degradation rate) [1, 3] | LEDA195–221 k ± 2SD (degradation rate) [1, 4] | LEDAall k ± 2SD (degradation rate) [1, 5] | Pure Isomer k ± 2SD (degradation rate) [1, 6] | behaviour towards plasma enzymes (hydrolysis or stable) [1] | half-life at 1 µM [1, 7] [min] | half-life at 1 µM [1, 8] [min] | half-life at 1 µM [1, 9] [min] | SMILES | t1/2 of the reference compound in human plasma [2] [min] |
| --- | --- | --- | --- | --- | --- | --- | --- | --- | --- |
| −0.023 ± 0.005 ln(μM)/min | −0.023 ± 0.005 ln(M)/min | −0.023 ± 0.003 ln(M)/min | −0.014 ± 0.001 ln(μM)/min | hydrolysis | 34 ± 14 | 34 ± 15 | 49 ± 18 | COc1cc(/C=C/C(=O)OCCCN(C)CCCCCCOC(=O)c2cc(OC)c(OC)c(OC)c2)cc(OC)c1OC [ELF94] | – |
| −0.019 ± 0.003 ln(μM)/min | −0.019 ± 0.003 ln(M)/min | −0.019 ± 0.005 ln(M)/min | −0.017 ± 0.001 ln(μM)/min | hydrolysis | 32 ± 18 | 32 ± 19 | 43 ± 16 | COc1cc(/C=C/C(=O)OCCCN(C)CCCCCOC(=O)c2cc(OC)c(OC)c(OC)c2)cc(OC)c1OC [FRA76] | – |
| – | – | – | – | – | – | – | – | CCOC(=O)C(C)c1cccc(C(=O)c2ccccc2)c1 (stereo not drawn) [KEE, Ketoprofen ethyl ester] | ≤ 120 |
| <0.006 ln(μM)/min | < 0.006 ln(M)/min | < 0.006 ln(M)/min | <0.006 ln(μM)/min | remained constant | > 120 | > 120 | > 120 | COc1cc(/C=C/C(=O)OCCCCCN(C)CCCOC(=O)c2cc(OC)c(OC)c(OC)c2)cc(OC)c1OC [GDE5] | – |
| <0.006 ln(μM)/min | < 0.006 ln(M)/min | < 0.006 ln(M)/min | <0.006 ln(μM)/min | remained constant | > 120 | > 120 | > 120 | COc1cc(/C=C/C(=O)OCCCCCCN(C)CCCOC(=O)c2cc(OC)c(OC)c(OC)c2)cc(OC)c1OC [ELF96] | – |
